The values that follow come from ChEMBL document CHEMBL5653615 (J Biol Chem, 2013).

A word on the inhibition: it is the relative decrease from the control value, in per cent.

The target in assay [1] is T1, Serine/threonine-protein kinase STK11 (Homo sapiens) (UniProt Q15831).
T1 sequence (whole entry): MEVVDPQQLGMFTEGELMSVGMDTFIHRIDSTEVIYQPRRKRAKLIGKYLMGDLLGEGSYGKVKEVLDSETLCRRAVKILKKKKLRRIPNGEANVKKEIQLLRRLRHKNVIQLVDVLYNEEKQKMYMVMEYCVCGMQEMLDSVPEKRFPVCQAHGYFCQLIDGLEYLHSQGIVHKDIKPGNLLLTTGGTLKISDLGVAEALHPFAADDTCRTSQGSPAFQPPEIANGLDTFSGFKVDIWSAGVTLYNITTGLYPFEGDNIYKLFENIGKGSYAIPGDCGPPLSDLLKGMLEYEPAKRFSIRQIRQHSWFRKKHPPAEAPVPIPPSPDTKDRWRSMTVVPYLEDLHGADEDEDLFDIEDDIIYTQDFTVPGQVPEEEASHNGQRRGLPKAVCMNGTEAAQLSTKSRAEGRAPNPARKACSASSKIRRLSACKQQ
Description: Inhibition of human LKB1 at 500 nM by HotSpot assay relative to control.

Assay [2] concerns the target T2, Serine/threonine-protein kinase ULK2 (Homo sapiens) (UniProt Q8IYT8).
T2 sequence (whole entry): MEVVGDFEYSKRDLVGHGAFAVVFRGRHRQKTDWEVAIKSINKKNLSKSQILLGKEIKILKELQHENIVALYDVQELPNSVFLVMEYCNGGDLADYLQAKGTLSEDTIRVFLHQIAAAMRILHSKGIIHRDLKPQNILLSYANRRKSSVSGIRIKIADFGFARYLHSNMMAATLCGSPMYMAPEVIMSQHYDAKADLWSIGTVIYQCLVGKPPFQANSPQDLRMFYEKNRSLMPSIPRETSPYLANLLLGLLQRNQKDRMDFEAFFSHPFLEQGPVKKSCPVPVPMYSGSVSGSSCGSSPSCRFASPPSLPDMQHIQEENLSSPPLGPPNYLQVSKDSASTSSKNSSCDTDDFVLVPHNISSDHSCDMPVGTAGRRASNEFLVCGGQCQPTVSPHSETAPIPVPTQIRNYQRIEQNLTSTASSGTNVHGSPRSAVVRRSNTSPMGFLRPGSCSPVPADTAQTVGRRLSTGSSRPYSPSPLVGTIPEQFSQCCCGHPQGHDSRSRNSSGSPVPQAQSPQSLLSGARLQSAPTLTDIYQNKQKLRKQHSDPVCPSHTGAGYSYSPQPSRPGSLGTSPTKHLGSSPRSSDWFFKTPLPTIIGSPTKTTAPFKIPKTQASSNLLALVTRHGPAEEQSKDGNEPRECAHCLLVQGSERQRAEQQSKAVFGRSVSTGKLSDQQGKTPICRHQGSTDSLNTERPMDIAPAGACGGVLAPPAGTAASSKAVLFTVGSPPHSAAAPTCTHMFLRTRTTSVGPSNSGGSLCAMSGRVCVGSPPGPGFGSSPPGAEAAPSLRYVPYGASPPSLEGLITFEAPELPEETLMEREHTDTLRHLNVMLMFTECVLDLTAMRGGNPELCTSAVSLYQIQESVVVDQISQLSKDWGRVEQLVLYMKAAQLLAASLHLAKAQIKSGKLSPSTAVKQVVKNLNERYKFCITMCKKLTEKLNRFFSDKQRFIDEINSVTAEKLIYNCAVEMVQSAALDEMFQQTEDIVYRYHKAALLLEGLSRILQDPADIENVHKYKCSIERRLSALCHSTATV
Description: Inhibition of human ULK2 at 500 nM by HotSpot assay relative to control.

Assay [3] concerns the target Homeodomain-interacting protein kinase 1 (Homo sapiens) (UniProt Q86Z02). Description: Inhibition of human HIPK1 at 500 nM by HotSpot assay relative to control.
The target in assay [4] is Tyrosine-protein kinase CSK (Homo sapiens) (UniProt P41240). Description: Inhibition of human CSK at 500 nM by HotSpot assay relative to control.
Chain of Tyrosine-protein kinase CSK (Homo sapiens) (P41240 2-450 limits assumed): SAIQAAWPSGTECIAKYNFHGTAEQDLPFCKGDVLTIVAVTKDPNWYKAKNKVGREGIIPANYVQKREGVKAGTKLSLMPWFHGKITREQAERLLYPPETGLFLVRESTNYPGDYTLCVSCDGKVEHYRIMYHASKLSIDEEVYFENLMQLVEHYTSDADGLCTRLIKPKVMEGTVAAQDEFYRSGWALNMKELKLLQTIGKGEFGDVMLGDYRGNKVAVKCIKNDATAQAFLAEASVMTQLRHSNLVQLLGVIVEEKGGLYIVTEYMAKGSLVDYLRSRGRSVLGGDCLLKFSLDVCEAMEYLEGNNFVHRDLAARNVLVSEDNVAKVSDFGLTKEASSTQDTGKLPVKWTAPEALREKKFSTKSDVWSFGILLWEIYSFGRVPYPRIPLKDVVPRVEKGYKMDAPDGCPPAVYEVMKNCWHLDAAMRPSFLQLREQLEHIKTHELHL
Assay [5] deals with Serine/threonine-protein kinase PLK2 (Homo sapiens) (UniProt Q9NYY3). Put plainly: Inhibition of human PLK2 at 500 nM by HotSpot assay relative to control.
Chain of Serine/threonine-protein kinase PLK2 (Homo sapiens) (Q9NYY3 whole entry, looked up): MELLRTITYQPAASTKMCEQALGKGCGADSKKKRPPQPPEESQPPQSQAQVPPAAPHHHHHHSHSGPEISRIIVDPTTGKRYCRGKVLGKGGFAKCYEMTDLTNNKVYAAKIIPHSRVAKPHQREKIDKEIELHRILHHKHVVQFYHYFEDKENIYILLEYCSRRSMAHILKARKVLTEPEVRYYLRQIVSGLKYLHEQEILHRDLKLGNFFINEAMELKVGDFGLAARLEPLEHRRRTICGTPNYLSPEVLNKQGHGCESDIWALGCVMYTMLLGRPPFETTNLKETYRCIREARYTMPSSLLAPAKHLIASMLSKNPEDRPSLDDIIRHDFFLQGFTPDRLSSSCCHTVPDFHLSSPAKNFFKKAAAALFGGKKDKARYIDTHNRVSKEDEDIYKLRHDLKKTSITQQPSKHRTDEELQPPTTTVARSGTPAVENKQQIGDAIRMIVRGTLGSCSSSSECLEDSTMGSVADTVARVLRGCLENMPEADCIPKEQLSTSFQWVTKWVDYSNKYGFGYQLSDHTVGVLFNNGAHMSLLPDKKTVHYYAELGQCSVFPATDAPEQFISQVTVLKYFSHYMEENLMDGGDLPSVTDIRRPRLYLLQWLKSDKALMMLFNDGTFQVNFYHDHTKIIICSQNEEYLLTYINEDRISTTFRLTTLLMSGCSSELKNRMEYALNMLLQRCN
The target of assay [6] is T3, MAP/microtubule affinity-regulating kinase 4 (Homo sapiens) (UniProt Q96L34).
T3 sequence (whole entry): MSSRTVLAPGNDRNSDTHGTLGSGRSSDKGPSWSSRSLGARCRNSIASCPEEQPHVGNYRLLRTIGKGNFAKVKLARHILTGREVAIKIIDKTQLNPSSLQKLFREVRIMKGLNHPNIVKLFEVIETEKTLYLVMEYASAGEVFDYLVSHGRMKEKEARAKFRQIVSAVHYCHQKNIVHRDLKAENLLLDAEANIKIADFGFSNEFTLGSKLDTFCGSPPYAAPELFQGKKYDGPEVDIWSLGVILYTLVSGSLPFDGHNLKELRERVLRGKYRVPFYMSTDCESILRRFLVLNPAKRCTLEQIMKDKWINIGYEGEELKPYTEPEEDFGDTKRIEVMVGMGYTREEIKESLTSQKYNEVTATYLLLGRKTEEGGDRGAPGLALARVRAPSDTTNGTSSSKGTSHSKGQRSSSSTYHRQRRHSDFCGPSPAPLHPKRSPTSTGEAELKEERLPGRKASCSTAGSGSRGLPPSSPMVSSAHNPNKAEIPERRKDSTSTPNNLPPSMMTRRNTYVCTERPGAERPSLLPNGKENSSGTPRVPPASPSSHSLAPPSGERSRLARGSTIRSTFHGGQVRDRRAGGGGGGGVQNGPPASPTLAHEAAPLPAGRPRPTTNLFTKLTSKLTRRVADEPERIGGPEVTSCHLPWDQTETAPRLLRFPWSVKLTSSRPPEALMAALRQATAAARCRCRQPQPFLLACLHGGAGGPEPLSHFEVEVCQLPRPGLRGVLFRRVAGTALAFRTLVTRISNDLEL
Put plainly: Inhibition of human MARK4 at 500 nM by HotSpot assay relative to control.

Assay [7] deals with Protein kinase C beta type (Homo sapiens) (UniProt P05771). Put plainly: Inhibition of human PKCb2 at 500 nM by HotSpot assay relative to control.
Chain of Protein kinase C beta type (Homo sapiens) (P05771 2-671 limits assumed): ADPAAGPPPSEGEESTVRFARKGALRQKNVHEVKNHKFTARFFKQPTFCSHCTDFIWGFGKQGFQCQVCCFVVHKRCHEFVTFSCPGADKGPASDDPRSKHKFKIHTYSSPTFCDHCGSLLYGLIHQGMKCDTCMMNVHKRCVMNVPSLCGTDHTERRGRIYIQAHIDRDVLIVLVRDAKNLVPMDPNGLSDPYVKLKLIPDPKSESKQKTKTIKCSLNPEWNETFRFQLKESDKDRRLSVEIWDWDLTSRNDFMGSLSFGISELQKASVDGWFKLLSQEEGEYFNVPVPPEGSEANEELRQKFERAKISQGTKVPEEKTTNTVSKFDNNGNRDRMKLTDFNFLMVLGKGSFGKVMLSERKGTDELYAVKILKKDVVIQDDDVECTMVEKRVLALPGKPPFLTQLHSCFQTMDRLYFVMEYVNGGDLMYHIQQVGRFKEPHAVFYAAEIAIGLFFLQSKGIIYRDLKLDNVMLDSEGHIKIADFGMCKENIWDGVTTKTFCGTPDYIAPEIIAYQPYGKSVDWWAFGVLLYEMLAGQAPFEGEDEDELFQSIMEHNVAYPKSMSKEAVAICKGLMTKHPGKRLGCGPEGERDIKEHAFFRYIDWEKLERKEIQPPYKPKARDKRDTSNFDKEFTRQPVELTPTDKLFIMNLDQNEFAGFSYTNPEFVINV

Structures are written as SMILES.

Chain of Homeodomain-interacting protein kinase 1 (Homo sapiens) (Q86Z02 whole entry, looked up): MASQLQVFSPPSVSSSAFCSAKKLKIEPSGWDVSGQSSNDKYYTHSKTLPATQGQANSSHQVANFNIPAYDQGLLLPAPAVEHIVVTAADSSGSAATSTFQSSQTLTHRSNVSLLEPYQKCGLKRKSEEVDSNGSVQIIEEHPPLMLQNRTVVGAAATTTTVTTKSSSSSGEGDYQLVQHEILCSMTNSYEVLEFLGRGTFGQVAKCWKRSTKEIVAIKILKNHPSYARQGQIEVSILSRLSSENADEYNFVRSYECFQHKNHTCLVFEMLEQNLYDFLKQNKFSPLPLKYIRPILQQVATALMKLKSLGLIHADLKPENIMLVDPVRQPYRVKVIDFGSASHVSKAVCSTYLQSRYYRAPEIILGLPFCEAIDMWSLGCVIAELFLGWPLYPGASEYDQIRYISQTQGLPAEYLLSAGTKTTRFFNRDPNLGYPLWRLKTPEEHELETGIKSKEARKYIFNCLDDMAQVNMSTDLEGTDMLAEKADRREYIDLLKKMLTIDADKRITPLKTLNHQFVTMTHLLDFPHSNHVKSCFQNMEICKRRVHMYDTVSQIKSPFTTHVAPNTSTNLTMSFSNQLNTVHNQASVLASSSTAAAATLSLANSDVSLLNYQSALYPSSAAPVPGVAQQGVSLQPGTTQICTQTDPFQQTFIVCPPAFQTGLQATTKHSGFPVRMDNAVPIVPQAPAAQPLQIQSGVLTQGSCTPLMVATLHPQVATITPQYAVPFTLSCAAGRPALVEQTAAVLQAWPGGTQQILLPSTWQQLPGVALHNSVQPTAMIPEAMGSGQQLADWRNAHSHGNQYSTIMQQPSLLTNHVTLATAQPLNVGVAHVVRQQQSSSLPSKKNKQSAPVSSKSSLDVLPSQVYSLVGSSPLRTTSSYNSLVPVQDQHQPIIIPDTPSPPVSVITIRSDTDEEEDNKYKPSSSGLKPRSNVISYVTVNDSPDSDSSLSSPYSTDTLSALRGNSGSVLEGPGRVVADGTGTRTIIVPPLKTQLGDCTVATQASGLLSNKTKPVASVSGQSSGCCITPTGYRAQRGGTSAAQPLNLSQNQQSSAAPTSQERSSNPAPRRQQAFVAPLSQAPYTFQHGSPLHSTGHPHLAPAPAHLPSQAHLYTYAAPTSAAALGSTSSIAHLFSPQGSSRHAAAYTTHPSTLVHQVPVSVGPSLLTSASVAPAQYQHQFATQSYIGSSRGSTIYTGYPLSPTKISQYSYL

Consider `Oc1n[nH]c2nnc(-c3c(-c4ccccc4)nn4ccccc34)cc12`, for which the inhibition in assay [1] is 7.3%; in assay [2], 0.86%; in assay [3], -1.71%; in assay [4], -1.06%; in assay [5], -3.28%; in assay [6], -3.17%. In assay [7], the inhibition was -2.98%.
In the case of `Nc1n[nH]c2nnc(-c3c(-c4ccccc4)nn4ccccc34)cc12`, the inhibition in assay [1] was 8.15%; in assay [2], 0.02%; in assay [3], -4.88%; in assay [4], 1.98%; in assay [5], -6.73%; in assay [6], -4.7%. In assay [7], the inhibition was 0.34%.
